# Test results taken from the NIST ThermoML archive (doi:10.1021/je700261b).
# Numbers after ± are expanded uncertainties.
# Assay: xn = mol fraction of the nth substance listed
# Settings: Liquid
compound,measurement,setting,value
CCCCO [butan-1-ol] + O=C=O,mass density,"313.1 K, 1008 kPa, x2 = 0.0251",798.08 ± 0.46 kg/m3
same,mass density,"313.1 K, 2011 kPa, x2 = 0.0251",798.9 ± 0.47 kg/m3
same,mass density,"313.1 K, 3006 kPa, x2 = 0.0251",799.7 ± 0.47 kg/m3
same,mass density,"313.1 K, 4012 kPa, x2 = 0.0251",800.54 ± 0.48 kg/m3
same,mass density,"313.1 K, 5008 kPa, x2 = 0.0251",801.32 ± 0.49 kg/m3
same,mass density,"313.1 K, 6013 kPa, x2 = 0.0251",802.14 ± 0.49 kg/m3
same,mass density,"313.1 K, 7004 kPa, x2 = 0.0251",802.94 ± 0.5 kg/m3
same,mass density,"313.1 K, 8023 kPa, x2 = 0.0251",803.75 ± 0.51 kg/m3
same,mass density,"313.1 K, 9037 kPa, x2 = 0.0251",804.53 ± 0.52 kg/m3
same,mass density,"313.1 K, 9990 kPa, x2 = 0.9698",711.97 ± 1 kg/m3
same,mass density,"313.1 K, 10005 kPa, x2 = 0.0251",805.29 ± 0.52 kg/m3
same,mass density,"313.1 K, 11011 kPa, x2 = 0.0251",806.08 ± 0.53 kg/m3
same,mass density,"313.1 K, 11014 kPa, x2 = 0.9698",740.16 ± 0.96 kg/m3
same,mass density,"313.1 K, 12018 kPa, x2 = 0.0251",806.83 ± 0.54 kg/m3
same,mass density,"313.1 K, 12040 kPa, x2 = 0.9698",761.46 ± 0.85 kg/m3
same,mass density,"313.1 K, 12987 kPa, x2 = 0.9698",777.57 ± 0.78 kg/m3
same,mass density,"313.1 K, 13003 kPa, x2 = 0.0251",807.56 ± 0.55 kg/m3
same,mass density,"313.1 K, 14007 kPa, x2 = 0.0251",808.31 ± 0.56 kg/m3
same,mass density,"313.1 K, 14020 kPa, x2 = 0.9698",792.52 ± 0.74 kg/m3
same,mass density,"313.1 K, 15009 kPa, x2 = 0.0251",809.03 ± 0.57 kg/m3
same,mass density,"313.1 K, 15028 kPa, x2 = 0.9698",805.22 ± 0.71 kg/m3
same,mass density,"313.1 K, 16004 kPa, x2 = 0.0251",809.77 ± 0.58 kg/m3
same,mass density,"313.1 K, 16029 kPa, x2 = 0.9698",816.46 ± 0.69 kg/m3
same,mass density,"313.1 K, 17000 kPa, x2 = 0.9698",826.34 ± 0.67 kg/m3
same,mass density,"313.1 K, 17005 kPa, x2 = 0.0251",810.49 ± 0.58 kg/m3
same,mass density,"313.1 K, 18019 kPa, x2 = 0.0251",811.19 ± 0.59 kg/m3
same,mass density,"313.1 K, 18024 kPa, x2 = 0.9698",835.89 ± 0.65 kg/m3
same,mass density,"313.1 K, 19019 kPa, x2 = 0.0251",811.89 ± 0.6 kg/m3
same,mass density,"313.1 K, 19027 kPa, x2 = 0.9698",844.46 ± 0.64 kg/m3
same,mass density,"313.1 K, 20020 kPa, x2 = 0.0251",812.59 ± 0.61 kg/m3
same,mass density,"313.1 K, 20021 kPa, x2 = 0.9698",852.41 ± 0.63 kg/m3
same,mass density,"313.1 K, 21013 kPa, x2 = 0.9698",859.87 ± 0.62 kg/m3
same,mass density,"313.1 K, 21027 kPa, x2 = 0.0251",813.29 ± 0.62 kg/m3
same,mass density,"313.1 K, 22005 kPa, x2 = 0.0251",813.97 ± 0.63 kg/m3
same,mass density,"313.1 K, 22032 kPa, x2 = 0.9698",867.02 ± 0.61 kg/m3
same,mass density,"313.1 K, 23006 kPa, x2 = 0.9698",873.5 ± 0.6 kg/m3
same,mass density,"313.1 K, 23011 kPa, x2 = 0.0251",814.69 ± 0.64 kg/m3
same,mass density,"313.1 K, 24004 kPa, x2 = 0.0251",815.36 ± 0.65 kg/m3
same,mass density,"313.1 K, 24011 kPa, x2 = 0.9698",879.83 ± 0.59 kg/m3
same,mass density,"313.1 K, 25028 kPa, x2 = 0.0251",816.1 ± 0.65 kg/m3
same,mass density,"313.11 K, 1990 kPa, x2 = 0.0857",802.76 ± 0.46 kg/m3
same,mass density,"313.11 K, 3001 kPa, x2 = 0.0857",803.63 ± 0.47 kg/m3
same,mass density,"313.11 K, 4009 kPa, x2 = 0.0857",804.54 ± 0.48 kg/m3
same,mass density,"313.11 K, 5013 kPa, x2 = 0.0857",805.41 ± 0.48 kg/m3
same,mass density,"313.11 K, 6014 kPa, x2 = 0.0857",806.27 ± 0.49 kg/m3
same,mass density,"313.11 K, 7009 kPa, x2 = 0.0857",807.15 ± 0.5 kg/m3
same,mass density,"313.11 K, 8011 kPa, x2 = 0.0857",807.98 ± 0.51 kg/m3
same,mass density,"313.11 K, 9009 kPa, x2 = 0.0857",808.79 ± 0.51 kg/m3
same,mass density,"313.11 K, 10011 kPa, x2 = 0.0857",809.65 ± 0.52 kg/m3
same,mass density,"313.11 K, 10994 kPa, x2 = 0.0857",810.46 ± 0.53 kg/m3
same,mass density,"313.11 K, 12007 kPa, x2 = 0.0857",811.26 ± 0.54 kg/m3
same,mass density,"313.11 K, 13022 kPa, x2 = 0.0857",812.06 ± 0.54 kg/m3
same,mass density,"313.11 K, 13999 kPa, x2 = 0.0857",812.83 ± 0.55 kg/m3
same,mass density,"313.11 K, 15014 kPa, x2 = 0.0857",813.63 ± 0.56 kg/m3
same,mass density,"313.11 K, 16013 kPa, x2 = 0.0857",814.38 ± 0.57 kg/m3
same,mass density,"313.11 K, 16994 kPa, x2 = 0.0857",815.12 ± 0.58 kg/m3
same,mass density,"313.11 K, 18005 kPa, x2 = 0.0857",815.89 ± 0.59 kg/m3
same,mass density,"313.11 K, 19008 kPa, x2 = 0.0857",816.61 ± 0.59 kg/m3
same,mass density,"313.11 K, 20010 kPa, x2 = 0.0857",817.4 ± 0.6 kg/m3
same,mass density,"313.11 K, 20990 kPa, x2 = 0.0857",818.09 ± 0.61 kg/m3
same,mass density,"313.11 K, 22028 kPa, x2 = 0.0857",818.85 ± 0.62 kg/m3
same,mass density,"313.11 K, 22900 kPa, x2 = 0.0857",819.47 ± 0.63 kg/m3
same,mass density,"313.11 K, 23996 kPa, x2 = 0.0857",820.3 ± 0.64 kg/m3
same,mass density,"313.11 K, 25047 kPa, x2 = 0.0857",821.11 ± 0.65 kg/m3
same,mass density,"313.15 K, 9101 kPa, x2 = 0.4972",830.36 ± 0.5 kg/m3
same,mass density,"313.15 K, 10085 kPa, x2 = 0.4972",831.83 ± 0.51 kg/m3
same,mass density,"313.15 K, 11056 kPa, x2 = 0.4972",833.28 ± 0.51 kg/m3
same,mass density,"313.15 K, 12062 kPa, x2 = 0.4972",834.75 ± 0.52 kg/m3
same,mass density,"313.15 K, 13043 kPa, x2 = 0.4972",836.14 ± 0.52 kg/m3
same,mass density,"313.15 K, 14050 kPa, x2 = 0.4972",837.54 ± 0.53 kg/m3
same,mass density,"313.15 K, 15053 kPa, x2 = 0.4972",838.9 ± 0.53 kg/m3
same,mass density,"313.15 K, 16037 kPa, x2 = 0.4972",840.22 ± 0.54 kg/m3
same,mass density,"313.15 K, 17055 kPa, x2 = 0.4972",841.56 ± 0.55 kg/m3
same,mass density,"313.15 K, 18037 kPa, x2 = 0.4972",842.85 ± 0.55 kg/m3
same,mass density,"313.15 K, 19023 kPa, x2 = 0.4972",844.11 ± 0.56 kg/m3
same,mass density,"313.15 K, 20041 kPa, x2 = 0.4972",845.39 ± 0.56 kg/m3
same,mass density,"313.15 K, 21003 kPa, x2 = 0.4972",846.61 ± 0.57 kg/m3
same,mass density,"313.15 K, 22068 kPa, x2 = 0.4972",847.91 ± 0.57 kg/m3
same,mass density,"313.15 K, 23079 kPa, x2 = 0.4972",849.14 ± 0.58 kg/m3
same,mass density,"313.15 K, 24016 kPa, x2 = 0.4972",850.27 ± 0.59 kg/m3
same,mass density,"313.15 K, 25033 kPa, x2 = 0.4972",851.48 ± 0.59 kg/m3
same,mass density,"313.16 K, 10073 kPa, x2 = 0.5965",836.7 ± 0.53 kg/m3
same,mass density,"313.16 K, 10087 kPa, x2 = 0.8663",805.12 ± 1.1 kg/m3
